Measured values from US20220380371A1, “MLL1 INHIBITORS AND ANTI-CANCER AGENTS” (NOVARTIS AG, priority 2019, published 2022).

Tests used:
MV4-11 cells = assay: MV4-11 6-Day Cell Growth CTG (CellTiter-Glo) Assay; format: cell-based; settings: Homo sapiens, MV4-11, 144 h, MV4-11 cell growth CellTiter-Glo, 6 days
Method: MV4-11 6-Day Cell Growth CTG (CellTiter-Glo) Assay
Acute myeloid leukemia cell MV4-11 (ATCC® CRL-9591™) was cultured with RPMI 1640 medium (Thermo Fisher Scientific, cat #11875) supplemented with 10% FBS (Thermo Fisher Scientific, cat #10099141) in humidified incubator at 37° C., 5% CO2. To assess the effect of MLL1 inhibition on cell growth, the compound of the present invention was dissolved in DMSO and serially diluted at 1:3 for 12 points starting from 10 mM then 200 nL for the replicate of each dose per well was dispensed to Viewplate-384 Black (Perkin Elmer). Exponentially growing MV4-11 cells were seeded at the density of 300 cells per well in 40 μL to the plate, so the final compound working concentration starts from 50 μM. After 6 days, 40 μL CellTiter-Glo (Promega, cat #G7573) was added into the cell culture well and luminescence was read with Envision (Perkin Elmer) to determine the viable cells. The percentage inhibition was calculated against the samples treated with DMSO only and the data were used for dose response curve fitting in GraphPad Prism to get the IC50 of representative compound of present invention, which reflects the inhibition of MLL1 activity.

[1] = target: wild type MLL1 four-member complex (MLL1-4C) (Homo sapiens, UniProt Q03164); assay: MLL1 LC-MS Assay; format: biochemical; settings: read-out: LCMS
Method: The compounds of the present disclosure were serially and separately diluted 3-fold in DMSO to obtain a total of eight or twelve concentrations. Then the test compounds at each concentration (120 nL of each) were transferred by Mosquito into white Proxiplate plus 384-well microplate (PerkinElmer). Solutions (6 μL) of 60 nM wild type MLL1 four-member complex (MLL1-4C) and 5 μM SAM in the reaction buffer (20 mM Tris-HCl, pH 8.0, 0.01% Tween 20, 1 mM DTT, 10 mM MgCl2, 0.01% BSA) were added to the wells that were then incubated with the test compound for 20 min. A 6 μL solution of 20 μM of the peptide substrate H3K4me0 (histone H3[1-21]-Biotin) in the reaction buffer was added to initiate each reaction. The final components in the reaction solution include 30 nM MLL1-4C, 2.5 μM SAM, and 10 μM H3K4me0 with varying concentration of the compounds. A positive control consisted of 30 nM MLL1-4C, 2.5 μM SAM, and 10 μM substrate in the absence of the test compound, and a negative control consisted of 2.5 μM SAM, and 10 μM substrate only. Each reaction was incubated at rt for 120 min, then stopped by addition of 3 μL per of quench solution (2.5% TFA with 320 nM d4-SAH). The reaction mixture was centrifuged (Eppendorf centrifuge 5810, Rotor A-4-62) for 2 min at 2000 rpm. The SAH production from the enzymatic assays were monitored by LC-MS/MS on an API 4000 triple quadrupole mass spec with Turbolon Spray (Applied Biosystem) coupled with Prominenece UFLC (Shimazu). The level of SAH production were then normalized based on the values coming from the positive and negative controls to give percent enzyme activities. The data were then fit to a dose response equation using the program Helios (Novartis) to get the IC50 values of the test compounds.

H3K4me3 in MV4-11 cells = assay: MV4-11 H3K4me3 Cellular ELISA Assay; format: cell-based; settings: Homo sapiens, MV4-11, 48 h
Method: MV4-11 H3K4me3 Cellular ELISA Assay
MV4-11 (ATCC® CRL-9591™) was cultured with RPMI1640 medium (Thermo Fisher Scientific, cat #11875) supplemented with 10% FBS (Thermo Fisher Scientific, cat #10099141) and 50 U/ml Penicillin-Streptomycin (Thermo Fisher Scientific, cat #10378016) in humidified incubator at 37° C., 5% CO2.
200 nL compounds dissolved in DMSO were serially diluted at 1:3 ratio for 12 points starting from 10 mM and dispensed into each wells of cell culture plates (PDL-coated ViewPlate-384 Black, FTC, PerkinElmer, #6007710). 3,750 MV4-11 cells in 40 μL culture medium were seeded into each well and treated with desired concentration for 48 hours. After treatment, wash cells with cold phosphate based buffer (PBS, pH 7.4) and aspirate the remaining PBS buffer. Crude histone lysate was extracted by 40 μL 0.5M HCl for 1 hour in 4° C. following neutralization by adding 32 μL neutralization buffer (0.5M Sodium phosphate dibasic, pH ˜12.5, 1.25 mM Dithiothreitol, Promega #V3151, Protease Inhibitor Cocktail, Sigma #8340) for each well. 5 μL and 20 μL of histone lysate was loaded to ELISA plate (384 Well Plates, PE HB, White, 6005620) for detection of total H3 and H3K4me3, respectively. Shake the plates gently in 4° C. for overnight. After histone binding, plates were washed with 80 μL PBS/T (PBS with 0.05% Tween-20) and blocked with 50 μL 3% BSA diluted in PBS/T per well for 1 hour. Incubate wells with primary antibody for 1 hour at room temperature using anti-H3K4me3 (CST #9727) and anti-total H3 (CST #9715) diluted 1:2000 in 3% BSA. Plates were then washed with PBS/T for 3 times and incubated with horseradish peroxidase (HRP) conjugated secondary antibody (CST #7074, 1:5000) for 1 hour at room temperature. The abundance of H3K4me3 and total H3 were measured by ECL substrates chemiluminescence (Pierce, #34080) on a plate reader (PerkinElmer EnVison 2104 Mutilable Reader). Percentage inhibition was calculated against DMSO control after normalization of H3K4me3 signal to H3 signal for individual samples. The data were then fit to a dose response curve using GraphPad Prism for IC50 calculation.

Row | Structure (SMILES) | IC50 (MV4-11 cells) [µM] | IC50 [1] [µM] | IC50 (H3K4me3 in MV4-11 cells) [µM]
1 | Nc1ncnc2c1ncn2Cc1c([C@@H](O)C(F)(F)F)cc(Cl)cc1N1CC[C@](N)(C(=O)NC2CC2)C1 [Example 33, (R)-3-amino-1-(2-((6-amino-9H-purin-9-yl)methyl)-5-chloro-3-((R)-2,2,2-trifluoro-1-hydroxyethyl)phenyl)-N-cyclopropylpyrrolidine-3-carboxamide] | > 3 | 0.05 to 0.1 | 1.9 to 3
2 | Nc1ncnc2c1ncn2Cc1c(N2CC[C@](N)(C(=O)NC3CC3)C2)ccc(F)c1CN1CCCCC1 [Example 46] | < 2 | 0.05 to 0.1 | < 1.9
3 | CN(C)Cc1c(C(F)(F)F)ccc(N2CC[C@](N)(C(=O)NC3CC3)C2)c1Cn1cnc2c(N)ncnc21 [Example 47] | < 2 | < 0.05 | < 1.9
4 | CN(C)Cc1c(F)ccc(N2CC[C@](N)(C(=O)N[C@H]3C[C@@H]3c3ccccc3)C2)c1Cn1cnc2c(N)ncnc21 [Example 49] | < 2 | < 0.05 | < 1.9
5 | Nc1ncnc2c1ncn2Cc1c(N2CC[C@](N)(C(=O)NC3CC3)C2)ccc(F)c1CN1CC[C@@H](F)C1 [Example 50] | < 2 | < 0.05 | < 1.9
6 | Nc1ncnc2c1ncn2Cc1c(N2CC[C@](N)(C(=O)NC3CC3)C2)ccc(F)c1CN1CC(F)C1 [Example 53] | < 2 | 0.05 to 0.1 | < 1.9
7 | Nc1ncnc2c1ncn2Cc1c(N2CC[C@](N)(C(=O)NC3CC3)C2)ccc(F)c1CN1CCC(F)(F)CC1 [Example 55] | < 2 | 0.05 to 0.1 | < 1.9
8 | Nc1ncnc2c1ncn2Cc1c(N2CC[C@](N)(C(=O)NC3CC3)C2)ccc(F)c1CN1CCC(F)CC1 [Example 56] | < 2 | 0.05 to 0.1 | < 1.9
9 | Nc1ncnc2c1ncn2Cc1c(N2CC[C@](N)(C(=O)NC3CC3)C2)ccc(F)c1CNCC(F)(F)F [Example 57] | < 2 | 0.05 to 0.1 | < 1.9
10 | CCN(Cc1c(F)ccc(N2CC[C@](N)(C(=O)NC3CC3)C2)c1Cn1cnc2c(N)ncnc21)C1CC1 [Example 59] | < 2 | < 0.05 | < 1.9
11 | CC1(C)CCN(Cc2c(F)ccc(N3CC[C@](N)(C(=O)NC4CC4)C3)c2Cn2cnc3c(N)ncnc32)C1 [Example 63] | < 2 | > 0.1 | < 1.9
12 | CC1CN(Cc2c(F)ccc(N3CC[C@](N)(C(=O)NC4CC4)C3)c2Cn2cnc3c(N)ncnc32)C1 [Example 64] | < 2 | 0.05 to 0.1 | < 1.9
13 | Nc1ncnc2c1ncn2Cc1c(N2CC[C@](N)(C(=O)NC3CC3)C2)ccc(F)c1CN1CCC(F)(F)C1 [Example 66] | < 2 | < 0.05 | < 1.9
14 | Nc1ncnc2c1ncn2Cc1c(N2CC[C@](N)(C(=O)NC3CC3)C2)ccc(F)c1CN1CC[C@H](F)C1 [Example 68] | < 2 | < 0.05 | < 1.9
15 | Nc1ncnc2c1ncn2Cc1c(N2CC[C@](N)(C(=O)NC3CC3)C2)ccc(F)c1CN1CCCC(F)(F)C1 [Example 69] | < 2 | 0.05 to 0.1 | < 1.9
16 | COCc1c(F)ccc(N2CC[C@](N)(C(=O)NC3CC3)C2)c1Cn1cnc2c(N)ncnc21 [Example 77, (R)-3-amino-1-(2-((6-amino-9H-purin-9-yl)methyl)-4-fluoro-3-(methoxymethyl)phenyl)-N-cyclopropylpyrrolidine-3-carboxamide] | < 2 | 0.05 to 0.1 | < 1.9
17 | COCc1c(Cl)ccc(N2CC[C@](N)(C(=O)NC3CC3)C2)c1Cn1cnc2c(N)ncnc21 [Example 78] | < 2 | < 0.05 | < 1.9

Second part, the compound after the results:

Row | IC50 (MV4-11 cells) [µM] | IC50 [1] [µM] | IC50 (H3K4me3 in MV4-11 cells) [µM] | Structure (SMILES)
18 | < 2 | < 0.05 | < 1.9 | Nc1ncnc2c1ncn2Cc1c(N2CC[C@](N)(C(=O)NC3CC3)C2)ccc(C(F)(F)F)c1Br [Example 41, (R)-3-amino-1-(2-((6-amino-9H-purin-9-yl)methyl)-3-bromo-4-(trifluoromethyl)phenyl)-N-cyclopropylpyrrolidine-3-carboxamide]
19 | 2 to 3 | > 0.1 | < 1.9 | CN(Cc1c(F)ccc(N2CC[C@](N)(C(=O)NC3CC3)C2)c1Cn1cnc2c(N)ncnc21)C1CC1 [Example 48]
20 | < 2 | > 0.1 | < 1.9 | Nc1ncnc2c1ncn2Cc1c(N2CC[C@](N)(C(=O)NC3CC3)C2)ccc(F)c1CNC1CC1 [Example 54]
21 | < 2 | 0.05 to 0.1 | < 1.9 | Nc1ncnc2c1ncn2Cc1c(N2CC[C@](N)(C(=O)NC3CC3)C2)ccc(F)c1CN1C[C@H]2CC[C@@H](C1)O2 [Example 58]
22 | < 2 | 0.05 to 0.1 | < 1.9 | CN(C)Cc1c(Cl)ccc(N2CC[C@](N)(C(=O)NC3CC3)C2)c1Cn1cnc2c(N)ncnc21 [Example 60]
23 | < 2 | 0.05 to 0.1 | < 1.9 | Nc1ncnc2c1ncn2Cc1c(N2CC[C@](N)(C(=O)NC3CC3)C2)ccc(F)c1CN1CCCC1 [Example 61]
24 | < 2 | 0.05 to 0.1 | < 1.9 | CCN(CC)Cc1c(F)ccc(N2CC[C@](N)(C(=O)NC3CC3)C2)c1Cn1cnc2c(N)ncnc21 [Example 67]
25 | < 2 | > 0.1 | < 1.9 | CCc1c(Cl)cc(Cl)c(N2CC[C@](N)(C(=O)N3CCS(=O)(=O)CC3)C2)c1Cn1cnc2c(N)ncnc21 [Example 73]
26 | 2 to 3 | 0.05 to 0.1 | < 1.9 | Nc1ncnc2c1ncn2Cc1c(N2CC[C@](N)(C(=O)NC3CC3)C2)ccc(F)c1CO [Example 76, (R)-3-amino-1-(2-((6-amino-9H-purin-9-yl)methyl)-4-fluoro-3-(hydroxymethyl)phenyl)-N-cyclopropylpyrrolidine-3-carboxamide]
27 | < 2 | 0.05 to 0.1 | < 1.9 | Nc1ncnc2c1ncn2Cc1c(N2CC[C@](N)(C(=O)NC3CC3)C2)ccc(Cl)c1COC1CCOC1 (stereo partly drawn) [Example 79]
28 | < 2 | 0.05 to 0.1 | < 1.9 | [2H]C([2H])([2H])OCc1c(F)ccc(N2CC[C@](N)(C(=O)NC3CC3)C2)c1Cn1cnc2c(N)ncnc21 [Example 80]
29 | < 2 | < 0.05 | < 1.9 | [2H]C([2H])([2H])OCc1c(Cl)ccc(N2CC[C@](N)(C(=O)NC3CC3)C2)c1Cn1cnc2c(N)ncnc21 [Example 81]
